ChEMBL document CHEMBL5370555, “Design, synthesis, and evaluation of PD-1/PD-L1 small-molecule inhibitors bearing a rigid indane scaffold” (Eur J Med Chem, 2023)
Activity calls are given as the source filed them. No cut-off for these calls is given here.

What was measured:
[1] = biological target: Programmed cell death protein 1/Programmed cell death 1 ligand 1 (Homo sapiens, UniProt Q15116+Q9NZQ7); test: Inhibition of PD-1/PD-L1 (unknown origin) protein-protein interaction incubated for 15 mins by TR-FRET assay; format: protein-complex assay
MDA-MB-231 [2] = test: (§1) Antitumor immunity against human MDA-MB-231 cells cocultured with CD3/CD28/CD2 T cell activator stimulated human PBMC cells assessed as killing activity cell mortality rate at 0.5 uM pre-treated with compound for 2 hrs followed by addition of CD3/CD28/CD2 T cell activator stimulated human PBMC cells and measured after 12 hrs relative to control; format: functional; details: time 14 hrs
Jurkat [3] = test: Restoration of PD-L1 mediated IFN-gamma release in anti-CD3/CD28 stimulated human Jurkat cells incubated for 24 hrs by ELISA method; format: functional, cell-based; details: dose 0.25-2 µM
MDA-MB-231 [4] = test: as §1, with “activity” for “activity cell mortality rate”, “0.25 to 1” for “0.5”, “hrs” for “hrs relative to control”; format: functional, cell-based; details: dose 0.25-1 µM, time 14.0 hrs
PBMC = test: Cytotoxicity against human PBMC cells at < 8 uM incubated for 24 hrs by CCK-8 method; format: toxicity, cell-based
Jurkat [5] = test: Cytotoxicity against human Jurkat cells at < 8 uM incubated for 24 hrs by CCK-8 method; format: functional, cell-based
RKO = test: Cytotoxicity against human RKO cells at 8 uM incubated for 24 hrs by CCK-8 method; format: functional, cell-based
MDA-MB-231 [6] = test: Cytotoxicity against human MDA-MB-231 cells at 1.0 uM incubated for 24 hrs by CCK-8 method; format: functional, cell-based
MDA-MB-231 [7] = test: Cytotoxicity against human MDA-MB-231 cells at 8 uM incubated for 24 hrs by CCK-8 method; format: functional, cell-based
Jurkat [8] = test: Restoration of PD-L1 mediated IFN-gamma release in anti-CD3/CD28 stimulated human Jurkat cells at 0.5 uM incubated for 24 hrs by ELISA method; format: functional, cell-based

Programmed cell death protein 1/Programmed cell death 1 ligand 1, sequence (Q15116 whole entry): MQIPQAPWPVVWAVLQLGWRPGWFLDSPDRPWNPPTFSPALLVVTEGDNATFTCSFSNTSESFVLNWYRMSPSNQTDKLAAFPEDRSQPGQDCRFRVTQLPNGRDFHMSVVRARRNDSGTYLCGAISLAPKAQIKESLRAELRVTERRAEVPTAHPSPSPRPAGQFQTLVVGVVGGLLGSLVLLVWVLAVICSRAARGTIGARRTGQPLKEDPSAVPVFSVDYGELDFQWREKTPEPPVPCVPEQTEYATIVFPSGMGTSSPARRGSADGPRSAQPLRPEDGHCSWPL
Programmed cell death protein 1/Programmed cell death 1 ligand 1, sequence (Q9NZQ7 whole entry): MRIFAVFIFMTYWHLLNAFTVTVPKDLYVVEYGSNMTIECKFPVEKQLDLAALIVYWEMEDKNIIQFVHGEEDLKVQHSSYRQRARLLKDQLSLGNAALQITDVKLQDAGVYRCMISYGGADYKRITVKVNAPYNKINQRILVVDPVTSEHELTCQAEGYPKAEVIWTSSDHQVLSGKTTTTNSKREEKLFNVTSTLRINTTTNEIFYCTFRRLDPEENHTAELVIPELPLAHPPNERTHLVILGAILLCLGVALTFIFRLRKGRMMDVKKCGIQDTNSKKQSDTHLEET

## COc1nc(O[C@H]2CCc3c(-c4ccc5c(c4)OCCO5)cccc32)c(Cl)cc1CNC[C@@H](O)CC(=O)O
[1]
  IC50: 14 nM

## COc1nc(O[C@H]2CCc3c(-c4cccc(F)c4)cccc32)c(Cl)cc1CNCCO
[1]
  IC50: 24.7 nM

## COc1nc(O[C@@H]2CCc3c(-c4ccccc4)cccc32)ccc1CNCCNC(C)=O
[1]
  IC50: 84.8 nM

## COc1nc(O[C@H]2CCc3c(-c4ccc(F)c(F)c4)cccc32)c(Cl)cc1CNCCO
[1]
  IC50: 55.6 nM

## COc1nc(OCc2cccc(-c3ccccc3)c2C)ccc1CNCCNC(C)=O
MDA-MB-231 [2]
  mortality at 0.5 µM: 45.1%

## COc1nc(O[C@H]2CCc3c(-c4ccc5c(c4)OCCO5)cccc32)c(Cl)cc1CNCC(F)(F)F
[1]
  IC50: 67 nM

## COc1nc(O[C@H]2CCc3c(-c4ccc5c(c4)OCCO5)cccc32)c(Cl)cc1CNCCO
[1]
  IC50: 10.2 nM

## COc1nc(O[C@H]2CCc3c(-c4ccc5c(c4)OCCO5)cccc32)c(Cl)cc1CN1CC[C@H](O)C1
[1]
  IC50: 18 nM

## COc1nc(O[C@H]2CCc3c(-c4ccccc4F)cccc32)c(Cl)cc1CNCCO
MDA-MB-231 [2]
  mortality at 0.5 µM: 40.9%
Jurkat [3]
  Activity: Dose-Dependent Effect
MDA-MB-231 [4]
  Activity: Active
PBMC
  Activity: Non-Toxic
[1]
  IC50: 2.2 nM
Jurkat [5]
  Activity: Active
RKO
  Activity: Active
MDA-MB-231 [6]
  Activity: inactive
MDA-MB-231 [7]
  Activity: Active
Jurkat [8]
  Activity: Active

## COc1nc(O[C@H]2CCc3c(-c4ccccc4)cccc32)ccc1CNCCO
[1]
  IC50: 24.4 nM

## COc1nc(O[C@H]2CCCc3c(-c4ccccc4)cccc32)ccc1CNCCO
[1]
  IC50: > 100 nM

## COc1nc(O[C@H]2CCc3c(-c4ccc5c(c4)OCO5)cccc32)c(Cl)cc1CNCCO
[1]
  IC50: 24.9 nM

## COc1nc(O[C@H]2CCc3c(-c4ccc5c(c4)OCCO5)cccc32)c(Cl)cc1CNCCNC(C)=O
[1]
  IC50: 16.3 nM

## COc1nc(O[C@H]2CCc3c(-c4ccc5c(c4)OCCO5)cccc32)c(Cl)cc1CN1CC[C@@H](O)C1
[1]
  IC50: 69.4 nM

## COc1nc(O[C@H]2CCc3c(-c4ccc5[nH]ccc5c4)cccc32)c(Cl)cc1CNCCO
[1]
  IC50: > 100 nM

## COc1nc(O[C@H]2CCc3c(-c4ccc5c(c4)OCCO5)cccc32)c(Cl)cc1CN1CC[C@H](C(=O)O)C1
[1]
  IC50: 16.4 nM

## COc1nc(O[C@H]2CCc3c(-c4ccc5ccccc5c4)cccc32)c(Cl)cc1CNCCO
[1]
  IC50: > 100 nM

## COCCNCc1cc(Cl)c(O[C@H]2CCc3c(-c4ccc5c(c4)OCCO5)cccc32)nc1OC
[1]
  IC50: 43.1 nM

## COc1nc(O[C@H]2CCc3c(-c4ccccc4)cccc32)c(Cl)cc1CNCCO
[1]
  IC50: 7.5 nM

## COc1nc(O[C@H]2CCc3c(-c4ccc5c(c4)OCCO5)cccc32)c(Cl)cc1CNCCN(C)C
[1]
  IC50: 46.2 nM

## COCCOc1cccc(-c2cccc3c2CC[C@@H]3Oc2nc(OC)c(CNCCO)cc2Cl)c1
[1]
  IC50: 94.5 nM

## COc1nc(O[C@H]2CCc3c(-c4ccc(F)cc4)cccc32)c(Cl)cc1CNCCO
[1]
  IC50: 37.8 nM

## COc1nc(O[C@@H]2CCc3c(-c4ccccc4)cccc32)ccc1CNCCO
[1]
  IC50: 57.8 nM

## COc1cccc(-c2cccc3c2CC[C@@H]3Oc2nc(OC)c(CNCCO)cc2Cl)c1
[1]
  IC50: > 100 nM

## COc1ccc(-c2cccc3c2CC[C@@H]3Oc2nc(OC)c(CNCCO)cc2Cl)cc1OC
[1]
  IC50: > 100 nM

## COc1nc(O[C@@H]2CCc3c(-c4ccc5c(c4)OCCO5)cccc32)c(Cl)cc1CN1CC(O)C1
[1]
  IC50: 19.6 nM

## COc1nc(O[C@H]2CCc3c(-c4ccc5c(c4)OCCO5)cccc32)c(Cl)cc1CNC[C@@H]1CCC(=O)N1
[1]
  IC50: 15.7 nM

## COc1nc(O[C@H]2CCc3c(-c4ccc5c(c4)OCCO5)cccc32)c(Cl)cc1CNCCC(N)=O
[1]
  IC50: 20.3 nM

## COc1nc(O[C@H]2CCCc3c(-c4ccccc4)cccc32)ccc1CNCCNC(C)=O
[1]
  IC50: 47.6 nM

## COc1nc(O[C@H]2CCc3c(-c4ccc5c(c4)OCCO5)cccc32)c(Br)cc1CNCCO
[1]
  IC50: 51 nM

## COc1nc(O[C@H]2CCc3c(-c4ccccc4)cccc32)ccc1CNCCNC(C)=O
[1]
  IC50: 21 nM

## COc1nc(O[C@H]2CCc3c(-c4ccc5c(c4)OCCO5)cccc32)c(Cl)cc1CNC[C@@H](O)CO
[1]
  IC50: 13.3 nM
